Here are results for 14 compounds from US20240383954A1, “PEPTIDE INHIBITORS OF INTERLEUKIN-23 RECEPTOR AND THEIR USE TO TREAT INFLAMMATORY DISEASES” (Janssen Biotech, Inc., priority 2020, published 2024).

Each structure is given as a SMILES string. Positions of bridges follow the written chain, without caps; N, C: chain ends. Non-standard residues stand in square brackets, D forms with d. Residues, ends and D or L forms follow the SMILES beside them. *: point of attachment. Trp(7-Me) = Cc1cccc2c(C[C@H](N)C(=O)O)c[nH]c12; 2Nal = N[C@@H](Cc1ccc2ccccc2c1)C(=O)O; AEF = NCCOc1ccc(C[C@H](N)C(=O)O)cc1; αMeY = C[C@](N)(Cc1ccc(O)cc1)C(=O)O; αMeF = C[C@](N)(Cc1ccccc1)C(=O)O; αMeE = C[C@](N)(CCC(=O)O)C(=O)O; Pen = CC(C)(S)[C@H](N)C(=O)O; αMeK = C[C@](N)(CCCCN)C(=O)O; Ac5c = NC1(C(=O)O)CCCC1; Thp = NC1(C(=O)O)CCOCC1; Hexanoyl = CCCCCC(=O)*; Boc = CC(C)(C)OC(=O)*

For the test, the target named is IL-23R (Homo sapiens, UniProt Q5VWK5). Nature of the test: cell-based. The note with it: PBMC pSTAT3 IC50 (nM), PBMCs from healthy donors, IL-23 5 ng/mL, 30 minutes, phosphorylated STAT3.
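Note: cryopreserved PBMCs stimulated at 37 °C in 5% CO2, then lysed, with phosphorylated STAT3 quantified in lysates using a phospho-STAT panel kit.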

Chain of IL-23R (Q5VWK5 24-629): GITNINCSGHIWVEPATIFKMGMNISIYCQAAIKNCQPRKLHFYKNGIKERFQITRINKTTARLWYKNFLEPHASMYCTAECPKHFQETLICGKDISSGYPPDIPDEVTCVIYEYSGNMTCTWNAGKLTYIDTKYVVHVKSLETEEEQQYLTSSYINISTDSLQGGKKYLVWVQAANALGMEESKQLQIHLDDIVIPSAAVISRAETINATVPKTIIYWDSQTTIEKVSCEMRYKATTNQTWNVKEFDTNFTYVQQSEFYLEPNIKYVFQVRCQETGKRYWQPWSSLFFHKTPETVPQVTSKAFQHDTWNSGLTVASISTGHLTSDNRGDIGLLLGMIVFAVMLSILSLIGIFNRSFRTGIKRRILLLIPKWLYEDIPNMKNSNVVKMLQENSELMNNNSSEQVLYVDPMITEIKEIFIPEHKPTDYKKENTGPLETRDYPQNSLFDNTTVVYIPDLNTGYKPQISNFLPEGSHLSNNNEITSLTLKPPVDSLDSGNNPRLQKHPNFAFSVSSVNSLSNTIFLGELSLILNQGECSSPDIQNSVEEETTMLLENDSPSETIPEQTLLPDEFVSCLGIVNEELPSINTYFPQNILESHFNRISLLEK

Take `CC(=O)N[C@H](CCCNC(=N)N)C(=O)N[C@@H]1C(=O)N[C@@H](CC(N)=O)C(=O)N[C@@H]([C@@H](C)O)C(=O)N[C@@H](Cc2c[nH]c3c(C)cccc23)C(=O)N[C@@H](CCC(N)=O)C(=O)N[C@H](C(=O)N[C@@H](Cc2ccc(OCCN)cc2)C(=O)N[C@@H](Cc2ccc3ccccc3c2)C(=O)NC2(C(=O)N[C@@H](CCC(=O)O)C(=O)N[C@@H](CC(N)=O)C(=O)NC3(C(N)=O)CCOCC3)CCCC2)C(C)(C)SSC1(C)C` [Compound 99, Ac-[(D)Arg]-[Pen]-N-T-[W(7-Me)]-Q-[Pen]-Phe[4-(2-aminoethoxy)]-[2-Nal]-[Acvc]-E-N-[THP]-NH2] (Ac-[dR][Pen]NT[Trp(7-Me)]Q[Pen][AEF][2Nal][Ac5c]EN[Thp]-NH2; disulfide 2-7): the IC50 turned out to be 4.2 nM. That is a single-digit nanomolar value.

`CC(=O)N[C@H](CCCNC(=N)N)C(=O)N[C@H]1CCSC[C@@H](C(=O)N[C@@H](Cc2ccc(OCCN)cc2)C(=O)N[C@@H](Cc2ccc3ccccc3c2)C(=O)NC2(C(=O)N[C@@](C)(CCC(=O)O)C(=O)N[C@@H](CC(N)=O)C(=O)NC3(C(N)=O)CCOCC3)CCOCC2)NC(=O)[C@H](CCC(N)=O)NC(=O)[C@H](Cc2c[nH]c3ccccc23)NC(=O)[C@H]([C@@H](C)O)NC(=O)[C@H](CCC(N)=O)NC1=O` [Compound 37, Ac-[(D)Arg]-[Abu]-Q-T-W-Q-[Cys]-Phe[4-(2-aminoethoxy)]-[2-Nal]-[THP]-[aMeGlu]-N-[THP]-NH2] displayed an IC50 of 11 nM.

Compound `CC(=O)NCCCC[C@H](NC(=O)[C@](C)(CCCCN)NC(=O)[C@H](Cc1ccc2ccccc2c1)NC(=O)[C@H](Cc1ccc(OCCN)cc1)NC(=O)[C@H]1NC(=O)[C@H](CCC(N)=O)NC(=O)[C@H](Cc2c[nH]c3c(C)cccc23)NC(=O)[C@H]([C@@H](C)O)NC(=O)[C@H](CC(N)=O)NC(=O)[C@@H](NC(C)=O)C(C)(C)SSC1(C)C)C(=O)N[C@@H](CC(N)=O)C(=O)N[C@@](C)(Cc1ccccc1)C(N)=O` [Compound 89, Ac-[Pen]-N-T-[W(7-Me)]-Q-[Pen]-Phe[4-(2-aminoethoxy)]-[2-Nal]-[a-MeLys]-[Lys(Ac)]-N-[a-MePhe]-NH2] gave an IC50 of 12 nM. This IC50 and that of the compound before are within 1.5-fold of each other.

`CC(=O)NCCCC[C@@H]1NC(=O)[C@H](Cc2c[nH]c3c(C)cccc23)NC(=O)[C@H]([C@@H](C)O)NC(=O)[C@H](CC(N)=O)NC(=O)[C@@H](NC(=O)[C@H](N)CCCNC(=N)N)C(C)(C)SSC(C)(C)[C@@H](C(=O)N[C@@H](Cc2ccc(OCCNC(=O)OC(C)(C)C)cc2)C(=O)N[C@@H](Cc2ccc3ccccc3c2)C(=O)NC2(C(=O)N[C@@H](CCC(=O)O)C(=O)N[C@@H](CC(N)=O)C(=O)N[C@@](C)(Cc3ccccc3)C(N)=O)CCOCC2)NC1=O` [Compound 305, NH2-r-Pen-N-T-7MeW-K(Ac)-Pen-AEF(Boc)-2Nal-THP-E-N-aMePhe-CONH2] (H-[dR][Pen]NT[Trp(7-Me)]K(Ac)[Pen][AEF](Boc)[2Nal][Thp]EN[αMeF]-NH2; disulfide 2-7) had an IC50 of 17 nM.

In the case of `CC(=O)NCCCC[C@@H]1NC(=O)[C@H](Cc2c[nH]c3c(C)cccc23)NC(=O)[C@H]([C@@H](C)O)NC(=O)[C@H](CC(N)=O)NC(=O)[C@@H](NC(C)=O)C(C)(C)SSC(C)(C)[C@@H](C(=O)N[C@@H](Cc2ccc(OCCN)cc2)C(=O)N[C@@H](Cc2ccc3ccccc3c2)C(=O)N[C@@](C)(CCCCN)C(=O)N[C@@H](CCCCNC(C)=O)C(=O)N[C@@H](CC(N)=O)C(=O)N[C@H](C(N)=O)[C@H](C)c2ccccc2)NC1=O` [Compound 312, MeCO-Pen-N-T-7MeTrp-K(Ac)-Pen-AEF-2Nal-aMeK-K(Ac)-N-bMePhe(S,R)-CONH2], the IC50 amounted to 90 nM. This IC50 lies about 5.3-fold higher than the previous one.

As to `CC(=O)N[C@H](CCCNC(=N)N)C(=O)N[C@H]1CCSC[C@@H](C(=O)N[C@@H](Cc2ccc(OCCN)cc2)C(=O)N[C@@H](Cc2ccc3ccccc3c2)C(=O)NC2(C(=O)N[C@@H](CCC(N)=O)C(=O)N[C@@H](CC(N)=O)C(=O)N[C@@](C)(Cc3ccccc3)C(N)=O)CCOCC2)NC(=O)[C@H](CCC(N)=O)NC(=O)[C@H](Cc2c[nH]c3ccccc23)NC(=O)[C@H]([C@@H](C)O)NC(=O)[C@H](CCC(N)=O)NC1=O` [Compound 30, Ac-[(D)Arg]-[Abu]-Q-T-W-Q-[Cys]-Phe[4-(2-aminoethoxy)]-[2-Nal]-[THP]-Q-N-[a-MePhe]-NH2], the IC50 was determined as 25 nM.

In the case of `CC(=O)NCCCC[C@@H]1NC(=O)[C@H](Cc2c[nH]c3c(C)cccc23)NC(=O)[C@H]([C@@H](C)O)NC(=O)[C@H](CC(N)=O)NC(=O)[C@@H](NC(=O)[C@@H](CCCNC(=N)N)NC(C)=O)C(C)(C)SSC(C)(C)[C@@H](C(=O)N[C@@H](Cc2ccc(OCCN)cc2)C(=O)N[C@@H](Cc2ccc3ccccc3c2)C(=O)NC2(C(=O)N[C@@](C)(CCC(=O)O)C(=O)N[C@@H](CC(N)=O)C(=O)N[C@@](C)(Cc3ccc(O)cc3)C(N)=O)CCOCC2)NC1=O` [Compound 150, Ac-[(D)Arg]-[Pen]-N-T-[W(7-Me)]-[Lys(Ac)]-[Pen]-Phe[4-(2-aminoethoxy)]-[2-Nal]-[THP]-[aMeGlu]-N-[aMeTyr]-NH2] (Ac-[dR][Pen]NT[Trp(7-Me)]K(Ac)[Pen][AEF][2Nal][Thp][αMeE]N[αMeY]-NH2; disulfide 2-7), the IC50 stood at 4.7 nM.

For `CC(=O)NCCCC[C@@H]1NC(=O)[C@H](Cc2c[nH]c3ccccc23)NC(=O)[C@H]([C@@H](C)O)NC(=O)[C@H](CC(N)=O)NC(=O)[C@@H](NC(C)=O)C(C)(C)SSC(C)(C)[C@@H](C(=O)N[C@@H](Cc2ccc(OCCN)cc2)C(=O)N[C@@H](Cc2ccc3ccccc3c2)C(=O)N[C@@](C)(CCCCN)C(=O)N[C@@H](CCCCNC(C)=O)C(=O)N[C@@H](CC(N)=O)C(=O)N[C@@](C)(Cc2ccccc2)C(N)=O)NC1=O` [Compound 98, Ac-[Pen]-N-T-W-[Lys(Ac)]-[Pen]-Phe[4-(2-aminoethoxy)]-[2-Nal]-[a-MeLys]-[Lys(Ac)]-N-[a-MePhe]-NH2], the IC50 is 15 nM. Against the preceding compound, the IC50 is about 3.2-fold higher.

Regarding `CCCCCC(=O)NCCCC[C@H](NC(=O)C1(NC(=O)[C@H](Cc2ccc3ccccc3c2)NC(=O)[C@H](Cc2ccc(OCCN)cc2)NC(=O)[C@H]2NC(=O)[C@H](CCC(N)=O)NC(=O)[C@H](Cc3c[nH]c4ccccc34)NC(=O)[C@H]([C@@H](C)O)NC(=O)[C@H](CCC(N)=O)NC(=O)[C@@H](NC(=O)[C@@H](CCCNC(=N)N)NC(C)=O)C(C)(C)SSC2(C)C)CCOCC1)C(=O)N[C@@H](CC(N)=O)C(=O)N[C@@H](Cc1ccccc1)C(N)=O` [Compound 59, Ac-[(D)Arg]-[Pen]-Q-T-W-Q-[Pen]-Phe[4-(2-aminoethoxy)]-[2-Nal]-[THP]-[Lys(COPent)]-N-F-NH2] (Ac-[dR][Pen]QTWQ[Pen][AEF][2Nal][Thp]K(Hexanoyl)NF-NH2; disulfide 2-7), the IC50 came out at 67 nM. This IC50 is about 4.5-fold higher than that of the compound before.

On to `CC(=O)N[C@H](CCCNC(=N)N)C(=O)N[C@H]1CCSC[C@@H](C(=O)N[C@@H](Cc2ccc(OCCN)cc2)C(=O)N[C@@H](Cc2ccc3ccccc3c2)C(=O)NC2(C(=O)N[C@@](C)(CCC(=O)O)C(=O)N[C@@H](CC(N)=O)C(=O)N[C@@](C)(Cc3c[nH]c4ccccc34)C(N)=O)CCOCC2)NC(=O)[C@H](CCC(N)=O)NC(=O)[C@H](Cc2c[nH]c3ccccc23)NC(=O)[C@H]([C@@H](C)O)NC(=O)[C@H](CCC(N)=O)NC1=O` [Compound 31, Ac-[(D)Arg]-[Abu]-Q-T-W-Q-[Cys]-Phe[4-(2-aminoethoxy)]-[2-Nal]-[THP]-[aMeGlu]-N-ameW-NH2], for which half-maximal inhibition (IC50) was put at 16 nM. Compared with the last compound, the IC50 is about 4.2-fold lower.

Compound `CC(=O)N[C@H](CCCNC(=N)N)C(=O)N[C@H]1CCSC[C@@H](C(=O)N[C@@H](Cc2ccc(OCCN)cc2)C(=O)N[C@@H](Cc2ccc3ccccc3c2)C(=O)NC2(C(=O)N[C@@](C)(CCC(=O)O)C(=O)N[C@@H](CC(N)=O)C(=O)N[C@@](C)(Cc3ccc(F)cc3)C(N)=O)CCOCC2)NC(=O)[C@H](CCC(N)=O)NC(=O)[C@H](Cc2c[nH]c3ccccc23)NC(=O)[C@H]([C@@H](C)O)NC(=O)[C@H](CCC(N)=O)NC1=O` [Compound 36, Ac-[(D)Arg]-[Abu]-Q-T-W-Q-[Cys]-Phe[4-(2-aminoethoxy)]-[2-Nal]-[THP]-[aMeGlu]-N-[aMe(4-F)Phe]-NH2] came in with an IC50 of 14 nM.

As for `CC(=O)NCCCC[C@@H]1NC(=O)[C@H](Cc2c[nH]c3c(C)cccc23)NC(=O)[C@H]([C@@H](C)O)NC(=O)[C@H](CC(N)=O)NC(=O)[C@@H](NC(C)=O)C(C)(C)SSC(C)(C)[C@@H](C(=O)N[C@@H](Cc2ccc(OCCN)cc2)C(=O)N[C@@H](Cc2ccc3ccccc3c2)C(=O)N[C@@](C)(CCCCN)C(=O)N[C@@H](CCCCNC(C)=O)C(=O)N[C@@H](CC(N)=O)C(=O)N[C@@](C)(Cc2ccccc2)C(=O)N[C@@H](Cc2cccnc2)C(N)=O)NC1=O` [Compound 116, Ac-[Pen]-N-T-[W(7-Me)]-[Lys(Ac)]-[Pen]-Phe[4-(2-aminoethoxy)]-[2-Nal]-[a-MeLys]-[Lys(Ac)]-N-[a-MePhe]-[3Pal]-NH2], inhibition was half-maximal at 20 nM (IC50).

In the case of `CCC(=O)N[C@H](CCCNC(=N)N)C(=O)N[C@H]1CCSC[C@@H](C(=O)N[C@@H](Cc2ccc(OCCN)cc2)C(=O)N[C@@H](Cc2ccc3ccccc3c2)C(=O)NC2(C(=O)N[C@@H](CCC(=O)O)C(=O)N[C@@H](CC(N)=O)C(=O)NC3(C(N)=O)CCOCC3)CCOCC2)NC(=O)[C@H](CCC(N)=O)NC(=O)[C@H](Cc2c[nH]c3ccccc23)NC(=O)[C@H]([C@@H](C)O)NC(=O)[C@H](CCC(N)=O)NC1=O` [Compound 2, [Propionic_acid]-[(D)Arg]-[Abu]-Q-T-W-Q-[Cys]-Phe[4-(2-aminoethoxy)]-[2-Nal]-[THP]-E-N-[THP]-NH2], half-maximal inhibition (IC50) required 3.3 nM.

On to `CC(=O)NCCCC[C@@H]1NC(=O)[C@H](Cc2c[nH]c3ccccc23)NC(=O)[C@H]([C@@H](C)O)NC(=O)[C@H](CCC(N)=O)NC(=O)[C@@H](NC(C)=O)C(C)(C)SSC(C)(C)[C@@H](C(=O)N[C@@H](Cc2ccc(OCCN)cc2)C(=O)N[C@@H](Cc2ccc3ccccc3c2)C(=O)N[C@@](C)(CCCCN)C(=O)N[C@@H](CCCCNC(C)=O)C(=O)N[C@@H](CC(N)=O)C(=O)NC2(C(N)=O)CCOCC2)NC1=O` [Compound 84, Ac-[Pen]-Q-T-W-[Lys(Ac)]-[Pen]-Phe[4-(2-aminoethoxy)]-[2-Nal]-[a-MeLys]-[Lys(Ac)]-N-[THP]-NH2] (Ac-[Pen]QTWK(Ac)[Pen][AEF][2Nal][αMeK]K(Ac)N[Thp]-NH2; disulfide 1-6), for which the IC50 turned out to be 54 nM.
